Source: PubChem BioAssay (NCI)
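Five concentrations, 48 hours, 96-well plates. GI50 = concentration required for 50% inhibition of growth. The concentration for full growth arrest is given as TGI.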

Experiments:
Test in all cases: NCI tumour cell line growth inhibition, 48 h
[1] = test system: SNB-75 CNS
[2] = test system: KM12 colon
[3] = test system: MDA-MB-231 breast
[4] = test system: SF-539 CNS
[5] = test system: SN12C renal
[6] = test system: TK-10 renal
[7] = test system: SK-OV-3 ovarian
[8] = test system: UO-31 renal
[9] = test system: HCC-2998 colon
[10] = test system: BT-549 breast

Structure (SMILES)	TGI [1] [µM]	TGI [2] [µM]	TGI [3] [µM]	TGI [4] [µM]	TGI [5] [µM]	TGI [6] [µM]	TGI [7] [µM]	TGI [8] [µM]	TGI [9] [µM]	GI50 [1] [µM]	GI50 [2] [µM]	GI50 [3] [µM]	GI50 [4] [µM]	GI50 [5] [µM]	GI50 [6] [µM]	GI50 [7] [µM]	GI50 [8] [µM]	GI50 [10] [µM]	TGI [10] [µM]	GI50 [9] [µM]
Oc1oc(-c2ccccc2)nc1/C=C1/C=NN=N1	> 100	> 100	> 100	> 100	> 100	> 100	> 100	> 100	> 100	–	–	–	–	–	–	–	–	–	–	–
COc1ccc2nc(C3=CN(C4OC(CO)C(O)C(O)C4O)C4C=CC=CC34)sc2c1 (stereo not given)	> 100	75.7	61.6	77.7	94.1	51.5	> 100	> 100	53.1	55	24.1	23.9	29.3	29.7	27.3	96	41.1	33.9	> 100	22.7
CCC(C)c1cnc(CC(C)C)c(=O)[nH]1 (stereo not given)	> 100	> 100	> 100	–	> 100	> 100	> 100	> 100	> 100	–	–	–	–	–	–	–	–	–	> 100	–
c1cc(C2N3CCCN2CC3)ccn1 (stereo not given)	> 100	> 100	> 100	–	> 100	> 100	> 100	> 100	> 100	–	–	–	–	–	–	–	–	–	> 100	–
CN(C)CCC(=O)NCc1c2nc3ccccc3nc2n2ccccc12	–	> 100	> 100	43.2	> 100	47.6	> 100	> 100	> 100	–	26	24.7	21.9	68	16	> 100	20.7	23.3	60.8	33.8
Cc1cccc2cc3ccc4ccccc4c3cc12	> 100	> 100	> 100	> 100	> 100	> 100	> 100	> 100	46.7	–	–	–	–	–	–	–	–	–	> 100	–
Cc1sc2c(c1C)C(c1ccc(Cl)cc1)=N[C@@H](CC(=O)Nc1ccc(O)cc1)c1nnc(C)n1-2	8.58	29.6	21.7	19	30.7	19	15	15.4	21.8	0.0297	4.52	0.18	0.629	9.41	0.0941	0.15	0.151	4.17	24.2	2.48
COc1ccc(NCc2c(O)ccc3ccccc23)cc1	> 100	> 100	> 100	25.9	> 100	38.6	> 100	> 100	–	–	–	–	–	–	–	–	–	–	43.5	–
COC(=O)C1=C2CO[C@@H]3C[C@H]4C(C)(C)CCC[C@]4(C)C(=CC1)[C@]23C	50.9	74.1	> 100	> 100	> 100	> 100	–	> 100	–	20.4	21.4	83	72.7	35.1	42.8	–	60.7	48.9	> 100	–
C=C(C)C1CCC2(CO)C(O)CC3(C)C(CCC4C5(C)CCC(O)C(C)(C)C5CCC43C)C12 (stereo not given)	9.5	> 100	57.2	30	> 100	30.2	–	26.7	–	–	–	–	–	–	–	–	–	–	> 100	–
CC1CCC(C#N)(NOC2=NCCN2)CC1 (stereo not given)	> 100	> 100	> 100	45.4	> 100	> 100	–	> 100	–	> 100	42.6	54.9	23.4	36.2	26.3	–	11.6	31.3	> 100	–
C=CC1=C(C)C(Cc2[nH]c(/C=c3\[nH]/c(=C/C4=NC(=O)C(C)/C4=C\C)c(C)c3CCC(=O)O)c(CCC(=O)OC)c2C)NC1=O (stereo not given)	–	40.1	58.9	54.4	44.6	> 100	78.2	36.1	67.1	–	21	25.4	25.1	22.2	46.4	27.9	18.9	–	–	26.7
